# Data as given in PubChem BioAssay AID1985 (Southern Research Specialized Biocontainment Screening …, 2009).
# Tested on: S. Typhi PhoP-promoter GFP reporter, fluorescence, 4 h
# Assay: PhoP regulon inhibitor project modified counter assay, GFP fluorescence readout, dose response (AID 1985)
row,Structure (SMILES),IC50 [µM]
1,O=C(N/N=C/c1cc(Cl)cc(Cl)c1O)c1ccncc1,20.2
2,O=C(CCN1CCOCC1)N/N=C/c1cc(Br)cc(Br)c1O,30.7
3,O=C(CN1C2=NCCCN2c2ccccc21)c1ccc(Br)s1,135
4,CN1CCc2nc(SCC(=O)Nc3cccc(F)c3)c(C#N)c(-c3cccs3)c2C1,136
5,O=S(=O)(Nc1ncccn1)c1ccc(NC(=S)Nc2ccc(Cl)cc2)cc1,97.1
6,COc1ccc(C(=O)CCN2CCc3cc(OC)c(OC)cc3C2)cc1,122
7,O=C(Cn1cncn1)N/N=C/c1ccccc1O,103
8,CCn1cc(C(=O)NCC(C)C)c(=O)c2cc(F)c(N3CCN(C)CC3)cc21,30.6
9,CCCCOc1ccc(CN=C(N)N)cc1Cl,103
10,O=C(CSc1nc2ccccc2s1)N/N=C/c1cc([N+](=O)[O-])ccc1O,44
11,CCCCC(=O)NC(=S)NNC(=O)CC,50.2
12,CC(Nc1nc(N2CCCC2)nc2ccccc12)c1ccccc1 (stereo unspecified),149
13,O=[N+]([O-])c1cc(Cl)cc(/C=N/NC(=S)Nc2ccc(S(=O)(=O)N3CCOCC3)cc2)c1O,46.3
14,O=[N+]([O-])c1ccc(/C=N/NC(=S)Nc2ccc(Cl)cc2Cl)s1,25
15,O=C(N/N=C/c1ccc([N+](=O)[O-])s1)C(O)c1ccccc1 (stereo unspecified),33.4
16,CC[n+]1c(/C=C/N(C)c2ccccc2)n(-c2ccccc2)c2ccc(-c3nc4ccccc4s3)cc21,8.97
17,Oc1ccc(COCc2ccccc2)c2cccnc12,47.8
18,CCN(CCNCC(O)COc1ccccc1C(C)C)c1cccc(C)c1 (stereo unspecified),72.6
19,Cc1ccc2nc(N(CCCN(C)C)C(=O)c3sc4ccccc4c3Cl)sc2c1,54.7
20,O=[N+]([O-])c1cc(CN2CCN(c3cccc(C(F)(F)F)c3)CC2)c2cccnc2c1O,34.6
21,CCCCCCCCCCCCCCCC[n+]1ccc(C(N)=O)cc1,15.4
22,CCC(C)N1CCC2(CC1)N=c1c(c3c4c5c(C)c(O)c3c(O)c1=NC(=O)C(C)=CC=C[C@H](C)[C@H](O)[C@@H](C)[C@@H](O)[C@@H](C)[C@H](OC(C)=O)[C@H](C)[C@@H](OC)C=CO[C@@](C)(O5)C4=O)N2 (stereo partly specified),9.09
23,CCCCCCCNC(=O)C1(CC2CC(c3ccc(Cl)cc3)=NO2)CCNCC1 (stereo unspecified),39

row,Structure (SMILES),IC50 [µM]
1,COc1cc(CNCCO)cc(Cl)c1OCc1ccc(Cl)cc1Cl,39
2,O=C(C[n+]1cc(-c2ccccc2)n2c1CCC2)Nc1nc(-c2ccc(F)cc2)cs1,141
3,CCCCCCCCCCCCCCCC[n+]1ccc(/C=N/O)cc1,34.2
4,Cc1cc([N+](=O)[O-])cc(/C=N\NC(=O)C2COc3ccccc3O2)c1O (stereo unspecified),23.3
5,O=C(N/N=C/c1cc(O)ccc1Br)c1cccnc1,33.2
6,Oc1ccc(C[C@@H]2CNCCN2CCCCC2CCCCC2)cc1,74.3
7,Cc1c(N2C(=O)/C(=C3\C(=O)N(CC(=O)O)c4ccccc43)SC2=S)c(=O)n(-c2ccccc2)n1C,91.6
8,CCn1cc(C(=O)O)c(=O)c2cc(F)c(N3CCN(S(=O)(=O)c4ccc(NC(C)=O)cc4)CC3)cc21,86.6
9,O=S(=O)(Nc1ncccn1)c1ccc(NC(=S)Nc2cccc(Cl)c2)cc1,95.3
10,COc1ccc(N2C3=C(CC4=C2CC(C)(C)CC4=O)C(=O)CC(C)(C)C3)cc1,146
11,O=C(N/N=C/c1cc([N+](=O)[O-])ccc1O)C1CC1,14.9
12,C#CCOCCOCCOCCNc1nc(N2CCN(C(=O)CCCCCCCCCCNC(=O)[C@@H](CCSC)n3cc(CCO)nn3)CC2)nc(N2CCN(C(=O)CCCCCCCCCCNC(=O)[C@H]([C@@H](C)CC)n3cc(CCCCCN)nn3)CC2)n1,110
13,Cc1cc(C2N=C(N)Nc3nc4ccccc4n32)c(C)n1-c1ccccc1Cl (stereo unspecified),88.3
14,COc1ccc(Nc2c3ccccc3nc3ccccc23)cc1,53.8
15,CCN1CCN(Cc2ccc(NC(=O)c3cc(NC(=O)c4cc(-c5ccc(OC)cc5)n[nH]4)cc(OC)c3)cc2C(F)(F)F)CC1,102
16,Fc1ccc(Nc2ccnc(Nc3ccc(F)cc3)n2)cc1,39.3
17,CC12CN3CC(C)(CN(C1)C3c1ccc(Br)cc1O)C2 (stereo unspecified),133
18,CN1CCN(C(c2cccc(Cl)c2)c2ccccc2Cl)CC1 (stereo unspecified),107
19,Cc1ccc(C(OCC(O)CNCc2ccc(F)cc2)c2ccccc2)cc1 (stereo unspecified),74.4
20,CCOC(=O)N1CCN(CCC(=O)c2ccc(Cl)cc2)CC1,108
21,C#CCOCCOCCOCCNc1nc(N2CCN(C(=O)[C@H](Cc3cc4ccccc4[nH]3)n3cc([C@@H](N)CC(C)C)nn3)CC2)nc(N2CCN(C(=O)[C@H](Cc3cc4ccccc4[nH]3)n3cc([C@@H](N)CC(C)C)nn3)CC2)n1,67.5
22,NC(=O)c1ccc(N=C2C(=O)Nc3ccc([N+](=O)[O-])cc32)cc1,31.8
23,O=C(O)c1cn(-c2ccc(F)cc2)c2cc(Cl)c(F)cc2c1=O,89.8

row,Structure (SMILES),IC50 [µM]
1,Cc1ccc(Cn2c(=N)n(CC(O)COc3ccccc3)c3ccccc32)cc1 (stereo unspecified),83.6
2,O=c1[nH]c(-c2ccccn2)nc(C(F)(F)F)c1Br,66.7
3,NC1=NC[C@H](Cc2ccc(O)cc2)N1CCC12CC3CC(CC(C3)C1)C2,95
4,CCN(CC(=O)NC(C)(C)C)C(=O)COc1c(Cl)cc(Cl)c2ccc(C)nc12,43.5
5,CCCCCNC(=O)c1cn(CC)c2cc(N3CCN(C)CC3)c(F)cc2c1=O,80.1
6,COc1cc(/C=N/N=C(N)N)ccc1OCc1ccc(Cl)cc1,36.7
7,CCCCCN=C(N)N/N=C/c1c[nH]c2ccc(OC)cc12,35.6
8,CSc1cccc(NC(=O)/C=C/c2ccccc2)c1,84.9
9,Cc1cccc(C(=O)NNC(=S)NC(=O)c2cccs2)c1,50.1
10,O=S1(=O)Nc2c(ccc3cccnc23)-c2ccccc21,1.17
11,Cc1ccc(NC(=S)Nc2ccc(S(=O)(=O)Nc3ncccn3)cc2)cc1Cl,101
12,NC(N)=Nc1nc(-c2ccccc2)c2cc(Cl)ccc2n1,97.8
13,CCn1cc(C(=O)O)c(=O)c2cc(F)c(N3CCN(C(=S)NC(=O)c4cccc(C)c4)CC3)cc21,8.37
14,COc1cccc(NC2=NC3(CCCCC3)N=C(N)N2)c1,147
15,Cc1cc(Br)ccc1OCCCCNCCO,61.8
16,COC(=O)C1C(O)C(C)C(O)C(C)(O)/C=C\C=C(/C)C(=O)Nc2c(C)c(OC(C)=O)c3c(c2O)C(=O)C(C)=C2OCOC(=C23)/C(C)=C/C(C)(O)C(O)C(C)C1O (stereo unspecified),33.1
17,CCCCOc1ccc(NC2=NC3(CCCCC3)N=C(N)N2)cc1,20.1
18,COc1cccc(CNCCc2c[nH]c3ccccc23)c1OCc1ccccc1,150
19,CC(C(=O)c1ccc(-c2ccccc2)cc1)[n+]1cccc(NC(=O)c2ccccc2)c1 (stereo unspecified),36.3
20,Cc1ccc(Nc2nc(NCCO)c3ccccc3n2)cc1C,80.8
21,C1=C(CCNc2ncnc3c2[nH]c2ccccc23)CCCC1,115
22,O=C(/C=C/c1ccc(F)cc1)NC(=S)NNC(=O)c1cnccn1,20.4
23,C=CCn1c(NS(=O)(=O)c2ccccc2)c(S(=O)(=O)c2ccc(C)cc2)c2nc3ccccc3nc21,135

row,Structure (SMILES),IC50 [µM]
1,O=C(/C=C/c1ccccc1)c1cc(Br)ccc(=O)c1O,51.1
2,CCCOc1ccc(S(=O)(=O)n2cc(F)c(=O)[nH]c2=O)cc1,42.2
3,COc1cc(Br)cc(/C=N/c2ncn[nH]2)c1O,81.3
4,CCCCCOc1ccc(C)cc1CN(CCCl)CCCl,138
5,CCc1ccc2c(c1)C1(NN=C(c3ccc(C)cc3)S1)C(=O)N2 (stereo unspecified),24.4
6,O=C(Nc1ccc(Cl)cc1)c1cccs1,105
7,O=C(CNCCC1=CCCCC1)Nc1ccc(N2CCCCCC2)cc1,54.2
8,COc1cc([N+](=O)[O-])cc(/C=N/NC(=O)C(O)(c2ccccc2)c2ccccc2)c1O,57.5
9,O=C(CN1CC[n+]2c(-c3cccs3)csc21)c1ccc(-c2ccccc2)cc1,33.7
10,Cc1ccc(C(=O)N/N=C\c2sccc2C)cn1,128
11,c1ccc(Sc2cccc3ccccc23)c(CNC2=NCCN2)c1,80
12,CCn1cc(C(=O)O)c(=O)c2cc(F)c(N3CCN(C(=S)Nc4ccccc4OC)CC3)cc21,6.7
13,O=C(N/N=C/c1ccc([N+](=O)[O-])o1)C(O)c1ccccc1 (stereo unspecified),13.1
14,Cc1ccc2oc(=O)c(/C=C(\O)c3ccccc3)nc2c1,46.7
15,CCCCOc1ccc(NC2=NC3(CCCC3)N=C(N)N2)cc1,72.9
16,Fc1ccc(Nc2c3c(nc4ccccc24)CCC3)cc1,85
17,CNC[C@@H](Cc1ccccc1)NC[C@@H](CC1CCCCC1)NCCCc1ccccc1,41.8
18,O=[N+]([O-])c1cc(Cl)c2cccnc2c1O,1.46
19,CCCCCCCCCC[N+](C)(C)CC/C=C1/c2ccccc2Sc2ccc(Cl)cc21,16.5
20,CCOc1ccc(OCCSc2nc3ccccc3[nH]2)cc1,106
21,Cc1ccc(C(=O)NNC(=S)NC(=O)c2ccccc2)cc1,62.8
22,Oc1c(I)cc(Cl)c2cccnc12,8.07
23,CCN(CCC(=O)Nc1ccc(Br)c(C)c1)Cc1ccccc1,79.8

row,Structure (SMILES),IC50 [µM]
1,CCN1/C(=C/C(C)=C/c2sc3ccccc3[n+]2CC)Sc2ccccc21,12.6
2,Cc1c(CCOC(=O)C2C3CC4CC(C3)CC2C4)sc[n+]1CC(=O)c1ccc(Br)cc1 (stereo unspecified),56.9
3,O=c1[nH][nH]c(-c2ccccc2O)c1C(C[N+](=O)[O-])c1ccc(Br)cc1 (stereo unspecified),71.7
4,CC(C)(c1ccccc1)c1ccc(OCCCNCCO)cc1,93.5
5,CSc1nc2ccc(Cl)cc2[nH]1,50.4
6,Nc1ncncc1-c1ccc([N+](=O)[O-])cc1,67.4
7,NC1=NC[C@@H](Cc2ccc(O)cc2)N1CCCCC1CCCCC1,32.5
8,C=CC1=C(C(=O)O)N2C(=O)[C@@H](NC(=O)/C(=N/OCC(=O)O)c3csc(N)n3)[C@H]2SC1,21
9,COc1ccc(C(=O)NNC(=S)NC(=O)c2ccccc2)cc1,82.5
10,CCCCOc1ccc(C(=O)OC2CC(C)N(C)CC2C)cc1 (stereo unspecified),41.7
11,CN(C)c1ccc(Nc2nc(N)c3ccccc3n2)cc1,62.4
12,O=C(CCNC(=O)c1ccco1)Nc1ccc(SC(F)F)cc1,74.7
13,CN(C)CCCN(C(=O)CCc1ccccc1)c1nc2ccc(Br)cc2s1,110
14,COc1ccc(CNCCc2cccc(F)c2)c2ccccc12,81.7
15,O=C(/C=C/c1ccccc1Cl)Nc1cccc(O)c1,61.7
16,O=c1oc2ccccc2nc1/C=C(\O)c1ccccc1,23.9
17,CCCCCc1ccc(OCCCC[n+]2cccc(C)c2)c(CCCCC)c1,103
18,N=c1n(Cc2ccc(Cl)cc2)c2ccccc2n1CC(O)COc1ccccc1 (stereo unspecified),66.8
19,O=c1c(O)cccc2cc(O)c(O)c(O)c12,17.5
